Where a name gives a salt, the structure may show the parent alone.

The source of these data is patent US4705786A, “Novel oxadiazolyl-1,4-dihydropyridines useful as antihypertensive agents” (Sumitomo Pharmaceuticals Company, Limited, priority 1984, dated 1987).

Series [1] has as its target isolated strips of the descending aorta (Rattus norvegicus, UniProt P22002). Put plainly: cell-based. Also on record: species or system Male Wistar rats. The settings on record: for Kb: isolated rat aorta, Ca2+ dose-response curves in 25 mM K+, Arunlakshana method, read-out: pA2 (converted). The method, then: The in vitro calcium antagonistic activity of the subject compounds of the formula (I) was evaluated according to substantially the same method as that of Toda et al., J. Pharmacol. Exp. Ther. 181, 512 (1972) and ibid., 191, 139 (1974).
Male Wistar rats weighing 300-400 g were stunned by a sharp blow to the head. The isolated strips of the descending aorta were-fixed vartically in a 50 ml organ both containing Krebs-Henseleit solution maintained at 37° C. and saturated with a 95% O2 +5% CO2 gas mixture. Isometric tension was measured with a foree-displacement transducer and recorded on a polygraph recorder. During a 60-90 min equilibration period the resting tension was repeatedly adjusted to 1 g. The vessels having ability to potassium-induced contractions were exposed to a Ca^2+ -free medium for 30 min and then to 25 mM K^+ solution. When a contractile plateau was reached, Ca^2+ was added, and the cumulative response to 0.25, 0.5 and 4 mM Ca^2+ was recorded. After wash-out and a equilibration period with renewed testing of contractile ability, the preparations were once more exposed to Ca^2+ -free medium. The test compound was added to the organ bath 5 min before administration of potassium. Calcium was cumulatively added once again and the contractile response so obtained was expressed in percent of the contraction elicited by 4 mM Ca^2+. Dose-response curves for Ca^2+ were carried out cumulatively in the absence or presence of increasing concentrations of test compound. The pA2 values were calculated by the method of Arunlakshana et al., Brit. J. Pharmacol., 14, 48 (1959).

The test system of series [2] is isolated rabbit aortic strip. Put plainly: inhibition of norepinephrine-induced contractions of isolated rabbit aortic strip potentiated by ouabain. The settings on record: Oryctolagus cuniculus, read-out: concentration at which norepinephrine-induced contractions are inhibited. Type of series: cell-based.
Series [3] relates to SHR. Put plainly: 4 weeks administration to SHR, hypotensive potency. Type of series: in vivo, spontaneous hypertensive rats (SHR). The settings on record: 15 mg/kg/day po. The method, then:
The hypotensive potency of the compound D was also compared with that of nicardipine by administering to the SHR for 4 weeks at 15 mg/kg/day, po.

Series [4] relates to physiological saline loaded rats. Put plainly: diuretic activity in physiological saline loaded rats. Format: in vivo. The settings on record: compound D 3 mg/kg po vs nicardipine 10 mg/kg po.
The subject of series [5] is mean arterial blood pressure. Put plainly: antihypertensive vasodilating activity in anesthetized, ganglion-blocked rats with blood pressure maintained by intravenous angiotensin II. Format: in vivo. The settings on record: 0.01 mg/kg and 0.003 mg/kg. The method, then:
The anesthetized and ganglion-blocked rats whose blood pressure were maintained by an intravenous infusion of angiotensin II were prepared and the test compounds were evaluated according to substantially the same method as that of Deitchman et al., J. Pharmacol Methods, 3, 311 (1980).

Series [6] has as its system spontaneous hypertensive rats (SHR). As to the kind of experiment: single oral administration to spontaneous hypertensive rats (SHR), antihypertensive activity. Format: in vivo. The settings on record: compound D 1 mg/kg vs nicardipine 3 mg/kg.

Chain of isolated strips of the descending aorta (P22002 whole entry): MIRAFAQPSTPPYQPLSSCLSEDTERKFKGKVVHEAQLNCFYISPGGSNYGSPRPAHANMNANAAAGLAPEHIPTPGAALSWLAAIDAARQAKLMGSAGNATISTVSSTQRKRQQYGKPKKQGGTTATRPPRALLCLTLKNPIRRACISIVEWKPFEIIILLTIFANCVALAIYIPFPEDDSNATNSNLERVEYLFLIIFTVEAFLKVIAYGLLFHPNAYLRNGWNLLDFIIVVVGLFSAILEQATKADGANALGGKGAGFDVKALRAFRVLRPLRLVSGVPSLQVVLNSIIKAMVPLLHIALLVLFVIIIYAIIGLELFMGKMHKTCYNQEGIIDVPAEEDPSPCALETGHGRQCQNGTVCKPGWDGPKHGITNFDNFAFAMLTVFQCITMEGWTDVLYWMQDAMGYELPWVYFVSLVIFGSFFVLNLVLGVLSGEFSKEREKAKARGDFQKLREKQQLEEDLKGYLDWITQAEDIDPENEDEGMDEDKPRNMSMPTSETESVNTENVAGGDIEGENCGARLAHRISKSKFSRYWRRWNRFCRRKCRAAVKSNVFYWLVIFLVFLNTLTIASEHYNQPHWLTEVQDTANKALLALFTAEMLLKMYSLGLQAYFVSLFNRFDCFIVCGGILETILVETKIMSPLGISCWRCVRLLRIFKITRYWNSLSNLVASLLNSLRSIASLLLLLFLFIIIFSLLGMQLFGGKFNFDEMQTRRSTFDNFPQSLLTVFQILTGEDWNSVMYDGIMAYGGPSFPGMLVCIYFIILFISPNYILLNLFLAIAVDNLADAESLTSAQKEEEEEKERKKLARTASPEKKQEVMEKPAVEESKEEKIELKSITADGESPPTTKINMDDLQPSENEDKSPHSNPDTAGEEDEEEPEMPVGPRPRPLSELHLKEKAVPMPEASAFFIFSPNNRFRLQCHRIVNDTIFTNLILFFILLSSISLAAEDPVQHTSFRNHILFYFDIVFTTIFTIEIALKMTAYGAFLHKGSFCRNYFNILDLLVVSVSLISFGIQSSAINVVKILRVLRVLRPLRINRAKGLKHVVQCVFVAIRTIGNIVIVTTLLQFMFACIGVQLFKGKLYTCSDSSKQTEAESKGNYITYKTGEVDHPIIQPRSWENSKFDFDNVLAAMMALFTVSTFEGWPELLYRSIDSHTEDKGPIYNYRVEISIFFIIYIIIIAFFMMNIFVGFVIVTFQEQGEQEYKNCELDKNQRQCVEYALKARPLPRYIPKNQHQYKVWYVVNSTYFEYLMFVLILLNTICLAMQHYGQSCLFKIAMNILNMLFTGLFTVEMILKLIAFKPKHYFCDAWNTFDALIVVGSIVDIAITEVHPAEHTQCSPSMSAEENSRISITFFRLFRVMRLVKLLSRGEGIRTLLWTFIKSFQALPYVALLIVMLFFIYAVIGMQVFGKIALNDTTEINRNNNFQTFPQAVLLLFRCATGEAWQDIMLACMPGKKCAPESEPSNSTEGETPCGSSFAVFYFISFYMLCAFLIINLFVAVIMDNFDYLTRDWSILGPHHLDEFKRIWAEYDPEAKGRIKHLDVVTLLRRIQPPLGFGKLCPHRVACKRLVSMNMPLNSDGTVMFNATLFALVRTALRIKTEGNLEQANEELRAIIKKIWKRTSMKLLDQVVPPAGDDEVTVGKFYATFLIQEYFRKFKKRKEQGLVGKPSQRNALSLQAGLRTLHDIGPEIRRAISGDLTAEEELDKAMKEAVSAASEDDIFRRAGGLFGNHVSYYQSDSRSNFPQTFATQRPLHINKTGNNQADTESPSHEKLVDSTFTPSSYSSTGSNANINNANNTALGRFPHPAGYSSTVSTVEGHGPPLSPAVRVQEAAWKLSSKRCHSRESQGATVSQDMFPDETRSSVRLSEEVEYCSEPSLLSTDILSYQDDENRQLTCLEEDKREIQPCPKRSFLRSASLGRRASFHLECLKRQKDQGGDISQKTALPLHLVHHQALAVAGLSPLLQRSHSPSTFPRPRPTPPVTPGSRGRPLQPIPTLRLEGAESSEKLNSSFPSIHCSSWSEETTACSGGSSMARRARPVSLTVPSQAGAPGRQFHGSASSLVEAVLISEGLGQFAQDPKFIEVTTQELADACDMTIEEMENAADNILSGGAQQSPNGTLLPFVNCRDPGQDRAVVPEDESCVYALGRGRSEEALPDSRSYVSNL
Chain of isolated strips of the descending aorta (P54290 25-944 partner limits assumed): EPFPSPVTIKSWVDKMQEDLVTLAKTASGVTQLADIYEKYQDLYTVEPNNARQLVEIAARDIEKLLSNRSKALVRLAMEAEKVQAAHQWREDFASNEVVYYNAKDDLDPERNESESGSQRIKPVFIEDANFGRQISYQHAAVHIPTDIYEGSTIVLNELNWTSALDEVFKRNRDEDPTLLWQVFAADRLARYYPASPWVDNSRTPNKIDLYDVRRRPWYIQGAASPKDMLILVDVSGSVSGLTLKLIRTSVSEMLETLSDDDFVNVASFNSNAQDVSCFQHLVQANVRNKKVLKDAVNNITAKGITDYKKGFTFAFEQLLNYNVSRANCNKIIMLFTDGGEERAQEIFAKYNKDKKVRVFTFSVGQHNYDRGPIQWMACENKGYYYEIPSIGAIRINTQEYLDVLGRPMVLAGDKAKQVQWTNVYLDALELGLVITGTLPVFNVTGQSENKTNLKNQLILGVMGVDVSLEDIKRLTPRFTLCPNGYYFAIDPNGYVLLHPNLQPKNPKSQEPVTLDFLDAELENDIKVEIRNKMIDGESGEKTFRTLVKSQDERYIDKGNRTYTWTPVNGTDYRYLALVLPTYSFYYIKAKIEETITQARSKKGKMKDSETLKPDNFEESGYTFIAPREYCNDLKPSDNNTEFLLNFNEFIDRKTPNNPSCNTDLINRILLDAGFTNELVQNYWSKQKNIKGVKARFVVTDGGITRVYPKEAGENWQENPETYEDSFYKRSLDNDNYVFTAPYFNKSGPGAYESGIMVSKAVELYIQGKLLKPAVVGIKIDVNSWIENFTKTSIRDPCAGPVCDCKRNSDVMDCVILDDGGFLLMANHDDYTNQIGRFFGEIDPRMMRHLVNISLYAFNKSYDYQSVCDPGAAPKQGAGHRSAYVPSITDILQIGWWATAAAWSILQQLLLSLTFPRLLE
Chain of isolated strips of the descending aorta (P54290 945-1091 partner limits assumed): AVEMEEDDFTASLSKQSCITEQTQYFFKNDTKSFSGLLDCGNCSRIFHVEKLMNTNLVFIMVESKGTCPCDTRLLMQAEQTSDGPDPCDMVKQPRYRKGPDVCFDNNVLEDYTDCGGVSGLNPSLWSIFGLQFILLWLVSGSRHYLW

As for `COC(=O)C1=C(C)NC(C)=C(c2nc(CN3CCCCC3)no2)C1c1cccc([N+](=O)[O-])c1` (centres unmarked) [A, Methyl 1,4-dihydro-2,6-dimethyl-3-(3-piperidinomethyl-1,2,4-oxadiazol-5-yl)-4-(3-nitrophenyl)pyridine-5-carboxylate hydrochloride], in series [1], the Kb is 0.0309 nM.

Take `COC(=O)C1=C(C)NC(C)=C(c2nc(CN3CCCCC3)no2)C1c1ccccc1` (centres unmarked) [B, Methyl 1,4-dihydro-2,6-dimethyl-3-(3-piperidinomethyl-1,2,4-oxadiazol-5-yl)-4-phenylpyridine-5-carboxylate hydrochloride]: the Kb in series [1] was 0.363 nM.

Turning to `COC(=O)C1=C(C)NC(C)=C(c2nc(CN3CCCCC3)no2)C1c1ccc(Cl)c(Cl)c1` (centres unmarked) [C, Methyl 1,4-dihydro-2,6-dimethyl-3-(3-piperidinomethyl-1,2,4-oxadiazol-5-yl)-4-(3,4-dichlorophenyl)pyridine-5-carboxylate hydrochloride], in series [1], the Kb was 0.129 nM.

As for `COC(=O)C1=C(C)NC(C)=C(c2nc(C)no2)C1c1cccc([N+](=O)[O-])c1` (centres unmarked) [Compound R1, Methyl 1,4-dihydro-2,6-dimethyl-3-(3-methyl-1,2,4-oxadiazol-5-yl)-4-(3-nitrophenyl)pyridine-5-carboxylate, reference compound], the “calcium antagonistic potency: times less potent than the subject compounds” value in series [1] (R1 compared with compounds A-G) is listed as 100-1000 times. The Kb in series [1] was 32.4 nM.

In the case of `COC(=O)C1=C(C)NC(C)=C(C(=O)OCCN(C)Cc2ccccc2)C1c1cccc([N+](=O)[O-])c1` (centres unmarked) [Compound R3, 2-(N--Benzyl-N--methylamino)ethyl methyl 1,4-dihydro-2,6-dimethyl-4-(3-nitrophenyl)pyridine-3,5-dicarboxylate, reference compound], the minimal effective concentration in series [2] is above 0.1 µM. Moreover, the “antihypertensive activity on 4 weeks administration” value in series [3] is reported as “no significant effects”. Further, the Kb in series [1] was 0.417 nM.

Take `COC(=O)C1=C(C)NC(C)=C(c2nc(CN(C)Cc3ccccc3)no2)C1c1cccc([N+](=O)[O-])c1` (centres unmarked) [D, Methyl 1,4-dihydro-2,6-dimethyl-3-[3-(N--benzyl-N--methylamino)methyl-1,2,4-oxadiazol-5-yl]-4-(3-nitrophenyl)-pyridine-5-carboxylate hydrochloride]: the diuretic activity result in series [4] is recorded as “about the same diuretic activity as that of nicardipine 10 mg/kg, po”. In addition, the minimal effective concentration in series [2] was 0.01 µM. In addition, in series [5], the “antihypertensive effects in comparison with nifedipine and nicardipine” value is “dose-dependently more potent and long acting antihypertensive effects in comparison with nifedipine and nicardipine”. Moreover, in series [6], the “antihypertensive activity in SHR” value is reported as “about the same antihypertensive activity as that of nicardipine 3 mg/kg” and the “duration of antihypertensive effect in SHR” value is on record as “continued much longer than that of nicardipine”. In series [3], the “antihypertensive activity on 4 weeks administration” value is given as “apparent antihypertensive activity” and the heart rate entry is listed as “slight decrease of heart rate”. Further, the Kb in series [1] is 0.186 nM.

As for `COC(=O)C1=C(C)NC(C)=C(c2nc(CNC(C)c3ccccc3)no2)C1c1cccc([N+](=O)[O-])c1` (stereo not drawn) [E, Methyl 1,4-dihydro-2,6-dimethyl-3-[3-(α-methylbenzylamino)methyl-1,2,4-oxadiazol-5-yl]-4-(3-nitrophenyl)-pyridine-5-carboxylate citrate], in series [1], the Kb was 0.0457 nM.

With `COC(=O)C1=C(C)NC(C)=C(c2nc(CN(C)CCc3ccc(OC)c(OC)c3)no2)C1c1cccc([N+](=O)[O-])c1` (centres unmarked) [F, Methyl 1,4-dihydro-2,6-dimethyl-3-[3-[N--(3,4-dimethoxyphenethyl)-N--methyl-amino]methyl-1,2,4-oxadiazol-5-yl]-4-(3-nitrophenyl)pyridine-5-carboxylate hydrochloride], the minimal effective concentration in series [2] was 0.01 µM. In addition, in series [1], the Kb was 0.0955 nM.

As for `CC1=C(C(=O)OC(C)C)C(c2cccc([N+](=O)[O-])c2)C(c2nc(CN(C)Cc3ccccc3)no2)=C(C)N1` (centres unmarked) [G, Isopropyl 1,4-dihydro-2,6-dimethyl-3-[3-(N--benzyl-N--methylamino)methyl-1,2,4-oxadiazol-5-yl]-4-(3-nitrophenyl)-pyridine-5-carboxylate hydrochloride], the Kb in series [1] is 0.355 nM.
